One assay addresses mu opioid receptor (Homo sapiens, UniProt P35372). The assay can be described thus: Filtration binding assay: mu opioid receptor.
The target of a further assay is kappa opioid receptor (Homo sapiens, UniProt P41145). Kind of assay: Filtration binding assay: kappa opioid receptor.
A further assay concerns the target delta opioid receptor (Homo sapiens, UniProt P41143). The assay can be described thus: Filtration binding assay: delta opioid receptor.
[1] abbreviates: mean where tested more than once, read-out: Mu IC50.
Where [2] appears, read: mean where tested more than once, read-out: Kappa IC50.
Where [3] appears, read: mean where tested more than once, read-out: Delta IC50.

The structures appear in SMILES notation. Structures can show the parent of a compound that is named as a salt. Where two headings read alike, the source gives them in different places.

mu opioid receptor, sequence (P35372 whole entry): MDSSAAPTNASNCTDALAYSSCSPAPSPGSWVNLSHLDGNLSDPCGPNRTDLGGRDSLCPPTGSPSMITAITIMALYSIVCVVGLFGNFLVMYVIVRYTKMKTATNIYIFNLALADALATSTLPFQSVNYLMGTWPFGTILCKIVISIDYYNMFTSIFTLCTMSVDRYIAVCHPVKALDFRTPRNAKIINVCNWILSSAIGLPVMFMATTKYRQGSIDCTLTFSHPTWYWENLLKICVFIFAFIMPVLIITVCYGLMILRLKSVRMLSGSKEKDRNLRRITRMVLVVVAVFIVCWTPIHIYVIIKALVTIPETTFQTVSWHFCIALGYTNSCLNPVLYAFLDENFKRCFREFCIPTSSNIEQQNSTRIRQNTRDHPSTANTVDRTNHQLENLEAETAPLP
delta opioid receptor, sequence (P41143 whole entry): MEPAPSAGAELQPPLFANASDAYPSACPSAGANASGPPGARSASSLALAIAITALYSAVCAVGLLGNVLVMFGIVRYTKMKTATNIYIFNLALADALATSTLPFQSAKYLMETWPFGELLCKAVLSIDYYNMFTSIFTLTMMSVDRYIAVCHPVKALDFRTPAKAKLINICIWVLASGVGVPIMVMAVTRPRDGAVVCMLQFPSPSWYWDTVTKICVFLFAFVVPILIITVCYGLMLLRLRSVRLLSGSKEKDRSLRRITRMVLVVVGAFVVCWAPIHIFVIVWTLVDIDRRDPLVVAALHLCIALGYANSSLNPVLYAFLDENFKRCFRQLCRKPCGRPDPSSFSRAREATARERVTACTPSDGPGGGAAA
kappa opioid receptor, sequence (P41145 whole entry): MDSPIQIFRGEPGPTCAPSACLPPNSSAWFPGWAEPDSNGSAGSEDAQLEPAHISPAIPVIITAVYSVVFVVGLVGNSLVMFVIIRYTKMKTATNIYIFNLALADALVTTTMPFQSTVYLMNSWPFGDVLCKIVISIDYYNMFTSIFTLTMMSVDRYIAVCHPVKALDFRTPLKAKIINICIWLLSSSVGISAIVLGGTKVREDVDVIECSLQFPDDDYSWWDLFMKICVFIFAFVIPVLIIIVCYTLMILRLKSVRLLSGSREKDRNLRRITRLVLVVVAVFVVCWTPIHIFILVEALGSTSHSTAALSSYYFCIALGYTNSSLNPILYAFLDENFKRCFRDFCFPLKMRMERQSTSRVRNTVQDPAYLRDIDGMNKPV

Turning to `COc1ccc(CCN(C)C[C@@H](O)CN2CN(c3ccc(F)cc3)C3(CCN([C@@H]4Cc5cccc6cccc4c56)CC3)C2=O)cc1OC` [Compound #339, (R)-8-Acenaphthen-1-yl-3-(3-{[2-(3,4-dimethoxy-phenyl)-ethyl]-methyl-amino}-(R)-2-hydroxy-propyl)-1-(4-fluoro-phenyl)-1,3,8-triaza-spiro[4.5]decan-4-one], the IC50 on mu opioid receptor is 210 nM; at kappa opioid receptor, 180 nM; on delta opioid receptor, greater than 10000 nM.

Turning to `CN(C)C[C@@H](O)CN1CN(c2ccc(F)cc2)C2(CCN([C@@H]3Cc4cccc5cccc3c45)CC2)C1=O` [Compound #423, (R)-Acenaphthen-1-yl-3-(3-dimethylamino-2-hydroxy-(R)-propyl)-1-(4-fluoro-phenyl)-1,3,8-triaza-spiro[4.5]decan-4-one], the IC50 on mu opioid receptor (setting [1]) was 310 nM; on kappa opioid receptor (setting [2]), 590 nM; on delta opioid receptor (setting [3]), greater than 1000 nM.

One may read the Ki as the dissociation constant of the complex between target and ligand, obtained from inhibition or displacement. Read a low Ki as tighter binding. Turning to `NC[C@@H](O)CN1CN(c2ccc(F)cc2)C2(CCN(CC3CCCCCCC3)CC2)C1=O` [Compound #620, 3-(3-Amino-2-(R)-hydroxy-propyl)-8-cyclooctylmethyl-1-(4-fluoro-phenyl)-1,3,8-triaza-spiro[4.5]decan-4-one], the figures for the Ki at mu opioid receptor, at kappa opioid receptor and on delta opioid receptor were 280 nM, 190 nM and greater than 5000 nM, respectively.

For the compound `NC[C@@H](O)CN1CN(c2ccccc2)C2(CCN([C@H]3CC[C@@H]4CCCc5cccc3c54)CC2)C1=O` [Compound #640, dihydrochloride], the Ki on mu opioid receptor is 120 nM; at kappa opioid receptor, 210 nM; at delta opioid receptor, greater than 5000 nM.

Take `Cc1cccc2cccc(CN3CCC4(CC3)C(=O)N(C[C@H](O)CNCCCO)CN4c3ccc(F)cc3)c12` [Compound #651, 1-(4-Fluoro-phenyl)-3-[2-(R)-hydroxy-3-(3-hydroxy-propylamino)-propyl]-8-(8-methyl-naphthalen-1-ylmethyl)-1,3,8-triaza-spiro[4.5]decan-4-one]: the Ki on mu opioid receptor was 670 nM; on kappa opioid receptor, 310 nM; at delta opioid receptor it was greater than 5000 nM.

For the compound `CNCCCNC[C@@H](O)CN1CN(c2ccc(F)cc2)C2(CCN(Cc3cccc4cccc(C)c34)CC2)C1=O` [Compound #656, 1-(4-Fluoro-phenyl)-3-[2-(R)-hydroxy-3-(3-methylamino-propylamino)-propyl]-8-(8-methyl-naphthalen-1-ylmethyl)-1,3,8-triaza-spiro[4.5]decan-4-one], the Ki on mu opioid receptor was 1520 nM; at kappa opioid receptor, 420 nM; on delta opioid receptor, greater than 5000 nM.

Take `Cc1cccc2cccc(CN3CCC4(CC3)C(=O)N(C[C@H](O)CNCCCN(C)C)CN4c3ccc(F)cc3)c12` [Compound #666, 3-[3-(3-Dimethylamino-propylamino)-2-(R)-hydroxy-propyl]-1-(4-fluoro-phenyl)-8-(8-methyl-naphthalen-1-ylmethyl)-1,3,8-triaza-spiro[4.5]decan-4-one]: the Ki at mu opioid receptor was 2590 nM; on kappa opioid receptor it was 140 nM; on delta opioid receptor, greater than 5000 nM.

Regarding `O=C1N(C[C@@H](O)CNCC23CC4CC(CC(C4)C2)C3)CN(c2ccc(F)cc2)C12CCN(CC1CCCCCCC1)CC2` [compound 17], the IC50 is 650 nM at mu opioid receptor, 250 nM on kappa opioid receptor and greater than 10000 nM on delta opioid receptor.

With `Cc1cccc(CNC[C@H](O)CN2CN(c3ccc(F)cc3)C3(CCN(CC4CCCCCCC4)CC3)C2=O)c1` [compound 18], the values for the IC50 at mu opioid receptor, at kappa opioid receptor and at delta opioid receptor were 450 nM, 280 nM and greater than 10000 nM, respectively.

For `O=C1N(C[C@@H](O)CNCc2cccc(Br)c2)CN(c2ccc(F)cc2)C12CCN(CC1CCCCCCC1)CC2` [compound 20], the IC50 at mu opioid receptor was 1280 nM; at kappa opioid receptor it was 440 nM; at delta opioid receptor, greater than 10000 nM.

With `COc1cccc(CNC[C@H](O)CN2CN(c3ccc(F)cc3)C3(CCN(CC4CCCCCCC4)CC3)C2=O)c1` [compound 35], the IC50 at mu opioid receptor is 820 nM; at kappa opioid receptor, 660 nM; at delta opioid receptor, greater than 10000 nM.

Regarding `O=C1N(C[C@@H](O)CNCc2ccccn2)CN(c2ccc(F)cc2)C12CCN(CC1CCCCCCC1)CC2` [compound 39], the IC50 at mu opioid receptor is 8830 nM; on kappa opioid receptor, 3250 nM; on delta opioid receptor, greater than 10000 nM.

Consider `Cc1ccc(CNC[C@H](O)CN2CN(c3ccc(F)cc3)C3(CCN(CC4CCCCCCC4)CC3)C2=O)cc1` [compound 41], for which the IC50 at mu opioid receptor is 2100 nM; on kappa opioid receptor, 250 nM; at delta opioid receptor, greater than 10000 nM.

On to `CCCCN(Cc1ccccc1)C[C@H](O)CN1CN(c2ccccc2)C2(CCN(C3Cc4cccc5c4[C@@H](CCC5)C3)CC2)C1=O` (stereo partly drawn) [compound 54], for which the IC50 at mu opioid receptor was 350 nM; at kappa opioid receptor, 110 nM; at delta opioid receptor, greater than 10000 nM.

In the case of `CN(C)CCN(Cc1ccccc1)C[C@H](O)CN1CN(c2ccc(F)cc2)C2(CCN(CC3CCCCCCC3)CC2)C1=O` [compound 63], the IC50 on mu opioid receptor was 3430 nM; at kappa opioid receptor, 230 nM; at delta opioid receptor, 8780 nM.

Turning to `CC1CN(C[C@H](O)CN2CN(c3ccc(F)cc3)C3(CCN(CC4CCCCCCC4)CC3)C2=O)CC(C)O1` (stereo partly drawn) [compound 75], the IC50 on mu opioid receptor is 980 nM; at kappa opioid receptor, 300 nM; on delta opioid receptor it was greater than 10000 nM.

Consider `CC(=O)NC(CSC[C@H](O)CN1CN(c2ccc(F)cc2)C2(CCN(CC3CCCCCCC3)CC2)C1=O)C(=O)O` (stereo partly drawn) [compound 100], for which the figures for the IC50 at mu opioid receptor (setting [1]), on kappa opioid receptor (setting [2]) and at delta opioid receptor (setting [3]) were 230 nM, 280 nM and greater than 10000 nM, respectively.

`CC(C)(C)N(Cc1ccccc1)C[C@H](O)CN1CN(c2ccc(F)cc2)C2(CCN(Cc3cccc4ccccc34)CC2)C1=O` [compound 250]: the IC50 is 1200 nM at mu opioid receptor, 380 nM at kappa opioid receptor and greater than 10000 nM on delta opioid receptor.

For the compound `O=C1N(C[C@@H](O)CNCCN2CCOCC2)CN(c2ccc(F)cc2)C12CCN(Cc1cccc3ccccc13)CC2` [compound 251], the IC50 is 1580 nM on mu opioid receptor, 450 nM on kappa opioid receptor and greater than 10000 nM on delta opioid receptor.

`CCN(Cc1ccc(C)cc1)C[C@H](O)CN1CN(c2ccc(F)cc2)C2(CCN(Cc3cccc4ccccc34)CC2)C1=O` [compound 252]: the figures for the IC50 on mu opioid receptor, on kappa opioid receptor and on delta opioid receptor were 3700 nM, 1340 nM and greater than 10000 nM, respectively.

Take `COc1ccc(CCNC[C@H](O)CN2CN(c3ccc(F)cc3)C3(CCN(Cc4cccc5ccccc45)CC3)C2=O)cc1OC` [compound 253]: the IC50 worked out at 760 nM on mu opioid receptor, 400 nM at kappa opioid receptor and 2160 nM at delta opioid receptor.

`O=C1N(C[C@@H](O)CNCCc2ccc3c(c2)OCO3)CN(c2ccc(F)cc2)C12CCN(Cc1cccc3ccccc13)CC2` [compound 254]: the IC50 at mu opioid receptor was 2830 nM; on kappa opioid receptor it was 800 nM; at delta opioid receptor, greater than 10000 nM.

Consider `COc1cc(CCNC[C@H](O)CN2CN(c3ccc(F)cc3)C3(CCN(Cc4cccc5ccccc45)CC3)C2=O)c([N+](=O)[O-])cc1OC` [compound 255], for which the IC50 was 2490 nM on mu opioid receptor, 620 nM on kappa opioid receptor and greater than 10000 nM on delta opioid receptor.

Regarding `COc1ccc(CCN(C)C[C@H](O)CN2CN(c3ccc(F)cc3)C3(CCN(Cc4cccc5ccccc45)CC3)C2=O)cc1OC` [compound 256], the figures for the IC50 at mu opioid receptor, on kappa opioid receptor and on delta opioid receptor were 5450 nM, 1180 nM and greater than 10000 nM, respectively.

`COc1ccc(CCNC[C@H](O)CN2CN(c3ccc(F)cc3)C3(CCN(Cc4ccc5ccccc5c4)CC3)C2=O)cc1OC` [compound 261]: the values for the IC50 at mu opioid receptor, on kappa opioid receptor and at delta opioid receptor were 1560 nM, 270 nM and greater than 10000 nM, respectively.

On to `COc1ccc(CNC[C@H](O)CN2CN(c3ccc(F)cc3)C3(CCN(Cc4cccc5cccc(C)c45)CC3)C2=O)cc1` [compound 398], for which the IC50 is greater than 10000 nM on mu opioid receptor, 250 nM on kappa opioid receptor and greater than 10000 nM on delta opioid receptor.

Consider `O=C1N(C[C@H]2CO2)CN(c2ccc(F)cc2)C12CCN(Cc1ccc3ccccc3c1)CC2` [compound 542], for which the IC50 at mu opioid receptor is 160 nM; at kappa opioid receptor it was 530 nM; on delta opioid receptor it was greater than 10000 nM.

Turning to `CC1(C)[C@H]2CC=C(CN3CCC4(CC3)C(=O)N(C[C@@H](O)CN)CN4c3ccc(F)cc3)[C@@H]1C2` [compound 619], the Ki at mu opioid receptor is 140 nM; on kappa opioid receptor it was 170 nM; at delta opioid receptor, greater than 5000 nM.

With `COCCCNC[C@H](O)CN1CN(c2ccc(F)cc2)C2(CCN(Cc3cccc4cccc(C)c34)CC2)C1=O` [compound 650], the values for the Ki at mu opioid receptor, on kappa opioid receptor and at delta opioid receptor were 740 nM, 460 nM and greater than 5000 nM, respectively.

Regarding `CNCCCNC[C@H](O)CN1CN(c2ccccc2)C2(CCN([C@H]3CC[C@@H]4CCCc5cccc3c54)CC2)C1=O` [compound 658], the Ki was 170 nM at mu opioid receptor, 130 nM at kappa opioid receptor and greater than 5000 nM at delta opioid receptor.

With `Cc1cccc2cccc(CN3CCC4(CC3)C(=O)N(C[C@H](O)CNCCCNC(=O)OC(C)(C)C)CN4c3ccc(F)cc3)c12` [compound 665], the Ki at mu opioid receptor was 2710 nM; on kappa opioid receptor, 290 nM; on delta opioid receptor it was greater than 5000 nM.

As for `Cc1cccc2cccc(CN3CCC4(CC3)C(=O)N(C[C@H](O)CNCCN(C)C(=O)OC(C)(C)C)CN4c3ccc(F)cc3)c12` [compound 667], the Ki on mu opioid receptor is 770 nM; on kappa opioid receptor it was 450 nM; on delta opioid receptor, 4140 nM.

On to `O=C1N(C[C@H](O)CN2C(CO)C(O)C(O)C2CO)CN(c2ccc(F)cc2)C12CCN(C1CCCCCCC1)CC2` (stereo partly drawn) [compound 688], for which the Ki on mu opioid receptor was 110 nM; on kappa opioid receptor, 160 nM; at delta opioid receptor, greater than 5000 nM.

With `Cc1cccc2cccc(CN3CCC4(CC3)C(=O)N(C[C@H](O)CN3CCCC3)CN4c3ccc(F)cc3)c12` [compound 705], the Ki on mu opioid receptor is 1500 nM; at kappa opioid receptor it was 710 nM; on delta opioid receptor it was greater than 5000 nM.

Take `Cc1cccc2cccc(CN3CCC4(CC3)C(=O)N(C[C@H](O)CN3CC[C@@H](NC(=O)OC(C)(C)C)C3)CN4c3ccc(F)cc3)c12` [compound 710]: the Ki was 1090 nM at mu opioid receptor, 360 nM on kappa opioid receptor and greater than 5000 nM on delta opioid receptor.

These data come from patent publication US7582649B2, “Hydroxy alkyl substituted 1,3,8-triazaspiro[4.5]decan-4-one derivatives useful for the treatment of ORL-1 receptor mediated disorders” (Janssen Pharmaceutica, NV, priority 2002, dated 2009).
